Experiments:
Format in all cases: cell-based, human
[1] = system: OCT3/4, SOX2, LIN28, KLF4 promoters; test: Promoter-GFP reporter screen of compound library in HDF cells in 3D hyaluronan hydrogel niche culture; details: for Activation of expression of one or more of the target promoters: GFP fluorescence after 4 days of incubation, normalized to ViPS control; for Optimized Concentration: empirically determined through repeat experiments with a broad range of concentrations
Experimental: (§1) Replicate microspots were prepared in Complete Media and transfected with reporter constructs for genes critically expressed in pluripotent cells. The reporter constructs contained promoter regions of one of the genes listed in Table 6 operably linked to a green fluorescent protein (GFP) coding region in pGlow TOPO TA (Invitrogen).
(§2) Briefly, a transient transfection mixture containing Lipofectamine 2000 (0.4 μl/24 μl total hyaluronan volume, Invitrogen) and promoter-Green Fluorescent Protein (GFP) construct in (500 ng) was added to each microspot.
(§3) Library screening was performed by including dilution series of each compound in mTeSR-1 medium, to HDF cells embedded in 3D hyaluronan hydrogel microenvironment niche culture optimized as described above in EXAMPLES 1 and 2.
(§4) After 4 days of incubation with target compounds, relative fluorescence from expression of the GFP constructs was recorded using a fluorescent microplate reader. Values were normalized to reflect percent fluorescence of control (ViPS) cells.
Compounds that activated expression of one or more of the target promoters were scored as positive.

HDF cells = test: ViPS pluripotency factor replacement: chemical induction of iPS colonies in 3D microenvironment niche culture; details: HDF in 3D ES cell microenvironment niche culture; preliminary
Excerpt: To test the possibility of chemical induction of pluripotency in human dermal fibroblasts, well known compounds affecting these pluripotency factors were substituted for expression of the pluripotency factors from viral expression vectors. Candidate compounds included those that affect the Wnt pathway because activation of this pathway had been reported to be involved in OCT 3/4, Sox-2, and Nanog activation. The initial compounds tested included: BIO (6-bromoindirubin-3′-oxime), a specific pharmacological inhibitor of glycogen synthase kinase known to stimulate Wnt signaling and maintain pluripotency in human and mouse embryonic stem cells (Sato et al., Nat. Med. (2004) 10:55-63); prostaglandin E2 (PGE2), reported to be an activator of Wnt pathway via “cross talk” at the beta-catenin signal level; valproic acid, a histone deacetylase (HDAC) inhibitor, and Wnt pathway activator (Bug et al. (2005) Cancer Res 65:2537-41). […] These compounds were chosen for further experimentation since their mechanism of activity was previously determined and they appeared to activate the pluripotency signal transduction pathway (e.g. Wnt pathway).
Compounds were added to HDF cells grown in 3D ES cell microenvironment niche cultures (prepared as described above in EXAMPLES 1 and 2), to evaluate whether they would rescue iPS phenotype in the absence of individual pluripotency factors introduced retrovirally. ViPS cells, induced with lentiviral transduction of pluripotency factor genes (OCT4, Sox2, Nanog, Klf4) as described by Takahashi et al. ((2007), Cell 131:1-12). Data is presented as the number of colonies with iPS morphology observed per 100,000 host cells.
Stem cell self renewal optimized 3-D hydrogel ES microenvironment niche conditions (as described in EXAMPLEs 1 and 2) were found necessary for chemical induction of iPS state. Pluripotency was not observed when standard tissue culture plates or those coated with Matrigel or methylcellulose were substituted for the 3D microenvironment conditions.

OCT4 promoter = test: Promoter-GFP reporter screen in HDF cells, OCT4 promoter; details: FIG. 7
Experimental: as §1, §2, §3, §4

SOX2 promoter = test: Promoter-GFP reporter screen in HDF cells, SOX2 promoter; details: FIG. 7
Experimental: as §1, §2, §3, §4

Compound	Activation of expression of one or more of the target promoters [1]	Optimized Concentration [1]	Replacement of virally transduced pluripotency factors (colonies with iPS morphology per 100,000 host cells) (HDF cells)	Expression of OCT4 promoter (OCT4 promoter)	Expression of SOX2 promoter (SOX2 promoter)
CCCCC[C@H](O)/C=C/[C@H]1[C@H](O)CC(=O)[C@@H]1C/C=C\CCCC(=O)O [D2-6542, Prostaglandin E2]	positive	10 µM	could be used to replace virally transduced pluripotency factors		
CCCCC[C@H](O)/C=C/[C@H]1C(=O)C=C[C@@H]1C/C=C\CCCC(=O)O [D9-9811, Prostaglandin J2]	positive	10 µM	could be used to replace virally transduced pluripotency factors		
CCCC(CCC)C(=O)O [D10-8976, Valproic Acid]	positive	2000 µM	could be used to replace virally transduced pluripotency factors	stimulate expression	stimulate expression
Cc1cccc(-c2n[nH]cc2-c2ccc3ncccc3n2)n1 [D21-8765, 2-(3-(6-Methylpyridin-2-yl)-1H-pyrazol-4-yl)-1,5-naphthyridine]	positive	25000 µM			
Br.Cc1ccc(C(=O)Cn2c3c(sc2=N)CCCC3)cc1 [D12-2234, 1-(4-Methylphenyl)-2-(4,5,6,7-tetrahydro-2-imino-3(2H)-benzothiazolyl)ethanone HBr]	positive	30 µM			
O=C1Nc2ccc([N+](=O)[O-])cc2C1=C1Nc2ccccc2C1=NO [D3-8976, Indirubin-5-nitro-3′-oxime]	positive	4 µM			
O=C1Nc2cc(Br)ccc2/C1=C1/Nc2ccccc2/C1=N\O [D9-6452, 6-bromoindirubin-3′-oxime]	positive	4 µM	could be used to replace virally transduced pluripotency factors		
